Assay results taken from patent US20260306640A1, “TECHNOLOGIES TARGETING CELL STATES” (Auron Therapeutics, Inc., priority 2023, published 2026).

What was measured:
[1] = tested on: histone acetylation (e.g., AcH3K9); assay: Histone H3K9 acetylation (AcH3K9), Western Blot, LASCPC-01 cells; assay type: cell-based; conditions: FIG. 3
Description: In some embodiments, an assessment is performed using cells. In some embodiments, cells were treated with various compounds before assessing KAT2A and/or KAT2B levels, histone (e.g., H3K9) acetylation levels, cell states, growth, etc.
Western Blot: In some assessments, MOLM13, NCI-H1048, LASCPC-01 and NEPC organoid cells were treated with compounds at certain concentrations for certain periods of time, and cell pellets were lysed by adding 1-part 4×laemmli Sample buffer (e.g., Bio-Rad Catalog #1610747) along with Mercaptoethanol (e.g., Bio-Rad Catalog #1610710) according to manufacturer's instructions, and 1-part RIPA buffer with 2×protease and phosphatase inhibitor. The samples were sonicated 30% amplitude, 35 seconds on and 35 seconds off for 1 cycle and boiled at 95° C. for 5 minutes. 30-35 μL of samples were loaded on a 4-15% Criterion™ TGX Stain-Free™ Protein Gel (Bio-rad, 5678084). In some assessments, NCI-H1048 flash frozen tumor pieces were resuspended in RIPA buffer and homogenized on TissueLyser II with steel beads at 30 Hz for 3 minutes. Samples were then centrifuged at […] at 4° C. for 15 minutes. BCA protein determination was performed and samples normalized for 1.95 ug/uL. 19.5 uL were loaded and run on similar gels as cell pellets. […]

[2] = molecular target: KAT2B (Homo sapiens, UniProt Q92831); assay: Western blot of KAT2B level in neuroendocrine prostate cancer LASCPC-01 cells, 24 hours; assay type: cell-based; set-up: degrader, Western blot; conditions: FIG. 3 (A)
Description: FIG. 3. Provided compounds can provide various activities. (A): Provided technologies can reduce KAT2A and KAT2B levels and histone acetylation levels. […] Cell viability (Cell Titer Glo) data relative to DMSO control after 7 days of treatment with compound 22 are presented as examples to confirm inhibition. GI50=5 nM. (C): Provided technologies can modulate cell states and induce differentiation. […] (D): Provided technologies can reduce KAT2A and KAT2B levels and histone acetylation levels including in neuroendocrine prostate cancer primary patient organoid. […] Concentrations are nM. […] Cell viability data relative to DMSO control after 21 days of treatment with compound 22 are presented as examples to confirm inhibition. GI50=3 nM. (F): Provided technologies can modulate cell states and induce differentiation.

[3] = Tolerability / body weight relative to starting weight in nude Balb/c mice bearing H1048 tumors; assay type: in vivo; conditions: once per week i.p.; 30 mg/kg; FIG. 1 (D), (E)
Description: FIG. 1. Provided compounds can provide various activities including inhibiting tumor growth in vivo. (A): Provided compounds can inhibit tumor growth in vivo. Nude Balb/c mice were inoculated with NCI-H1048 cells in Matrigel. Tumors were allowed to grow up to about 200 mm^3 and mice were then randomized into two groups. Mice were dosed intraperitoneally (i.p.) once per week with vehicle or 30 mg/kg compound 22. Tumor size was measured every three to four days and mice were sacrificed once vehicle tumors reached 2000 mm^3. Error bar is SEM. Dosing started at day 17 post tumor inoculation. (B): Provided technologies can reduce KAT2A and KAT2B levels and histone acetylation levels. […] Vehicle is DMSO. […] Cell count data relative to DMSO control after 8 days of treatment with compound 22 are presented as examples to confirm inhibition. GI50=6 nM. (D): Provided technologies can inhibit tumor growth in vivo. Nude balb/c mice inoculated with H1048 tumors were dosed intraperitoneally once per week (qw i.p.) with vehicle (HbCD) or compound 22. Average tumor volumes+/−SEM from 6 mice are represented. […] See also (A). […] Certain body weights relative to starting weight are presented as examples to confirm tolerability and safety. (F): Provided technologies can reduce KAT2A and KAT2B levels and histone acetylation levels in tumor in vivo. […]

[4] = molecular target: KAT2A (Homo sapiens, UniProt Q92830); assay: KAT2A reduction in LASCPC-01 cells; assay type: cell-based; set-up: degrader, Western blot
Description: MOLM-13 cells or NCI-H1048 cells were washed with PBS, then lysed with RIPA buffer containing 1×protease and phosphatase inhibitors (SantaCruz Biotechnologies Cat #sc-24948A). Protein was isolated by centrifugation at 12,000×g for 10 minutes at 4° C. and supernatant was collected. Protein was quantified via Bradford assay. Samples were diluted to 4 μg lysate in 16 μL RIPA buffer and then 4 μL of Jess Sample Buffer. Samples were heated at 95° C. for 5 minutes. Samples were loaded onto 12-230 kDa Jess™ Separation Module, 8×25 capillary cartridges (SM-W004, Biotechne). Antibodies loaded were: Primary antibody for KAT2A (GCN5L2 (C26A10) Rabbit mAb (3305, CST)) and for KAT2B (PCAF (C14G9)) Rabbit mAb (3378, CST) at 1:1000 and Anti-Rabbit Detection Module for Jess™ (Cat No #DM-001, Biotechne). Signal was detected by chemiluminescence.
In some embodiments, assessment was performed in LASCPC-01 cells, and reduction of KAT2A and KAT2B levels, including in some cases selectivity for one over the other, was confirmed. In some embodiments, DC50 and/or DC90 were assessed. In some embodiments, DC50 for various compounds was about or no more than about 1 nM. In some embodiments, DC90 for various compounds was about or no more than about 1 nM. In some embodiments, selectivity for the same polypeptide by a compound was observed across multiple types of cells (e.g., when assessed using DC50 and/or DC90). In some embodiments, certain compounds can provide improved properties and/or activities (e.g., potency). Data from certain assessments for certain compounds are presented below as examples (NT: not tested). It has been confirmed that various compounds described herein, including multiple compounds in Table 1, can be deemed to provide further improved properties and/or activities compared to the compound(s) in the table below for certain contexts, aspects, and/or uses.

Chain of KAT2A (Q92830 whole entry): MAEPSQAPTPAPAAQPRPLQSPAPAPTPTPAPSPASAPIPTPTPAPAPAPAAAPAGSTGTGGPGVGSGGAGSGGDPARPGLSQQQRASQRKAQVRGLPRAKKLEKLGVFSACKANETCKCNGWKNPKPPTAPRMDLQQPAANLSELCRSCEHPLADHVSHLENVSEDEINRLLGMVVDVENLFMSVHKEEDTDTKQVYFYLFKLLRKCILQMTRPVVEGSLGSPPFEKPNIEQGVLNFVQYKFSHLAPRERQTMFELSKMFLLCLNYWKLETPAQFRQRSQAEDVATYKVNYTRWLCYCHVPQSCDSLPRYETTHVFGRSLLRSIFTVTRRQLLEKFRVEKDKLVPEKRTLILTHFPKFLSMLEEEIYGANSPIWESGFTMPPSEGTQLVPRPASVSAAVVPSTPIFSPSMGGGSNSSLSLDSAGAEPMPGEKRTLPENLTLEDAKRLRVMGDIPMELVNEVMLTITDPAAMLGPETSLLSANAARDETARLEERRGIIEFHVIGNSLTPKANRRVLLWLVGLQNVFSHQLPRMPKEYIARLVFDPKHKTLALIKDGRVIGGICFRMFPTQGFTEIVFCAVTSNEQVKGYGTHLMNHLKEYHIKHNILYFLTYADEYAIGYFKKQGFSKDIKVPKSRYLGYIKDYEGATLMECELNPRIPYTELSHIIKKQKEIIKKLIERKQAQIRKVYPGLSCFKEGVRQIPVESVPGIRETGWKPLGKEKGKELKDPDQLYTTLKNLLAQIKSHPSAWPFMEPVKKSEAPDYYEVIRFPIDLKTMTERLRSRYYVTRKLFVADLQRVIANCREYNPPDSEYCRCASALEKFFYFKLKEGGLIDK
Chain of KAT2B (Q92831 whole entry): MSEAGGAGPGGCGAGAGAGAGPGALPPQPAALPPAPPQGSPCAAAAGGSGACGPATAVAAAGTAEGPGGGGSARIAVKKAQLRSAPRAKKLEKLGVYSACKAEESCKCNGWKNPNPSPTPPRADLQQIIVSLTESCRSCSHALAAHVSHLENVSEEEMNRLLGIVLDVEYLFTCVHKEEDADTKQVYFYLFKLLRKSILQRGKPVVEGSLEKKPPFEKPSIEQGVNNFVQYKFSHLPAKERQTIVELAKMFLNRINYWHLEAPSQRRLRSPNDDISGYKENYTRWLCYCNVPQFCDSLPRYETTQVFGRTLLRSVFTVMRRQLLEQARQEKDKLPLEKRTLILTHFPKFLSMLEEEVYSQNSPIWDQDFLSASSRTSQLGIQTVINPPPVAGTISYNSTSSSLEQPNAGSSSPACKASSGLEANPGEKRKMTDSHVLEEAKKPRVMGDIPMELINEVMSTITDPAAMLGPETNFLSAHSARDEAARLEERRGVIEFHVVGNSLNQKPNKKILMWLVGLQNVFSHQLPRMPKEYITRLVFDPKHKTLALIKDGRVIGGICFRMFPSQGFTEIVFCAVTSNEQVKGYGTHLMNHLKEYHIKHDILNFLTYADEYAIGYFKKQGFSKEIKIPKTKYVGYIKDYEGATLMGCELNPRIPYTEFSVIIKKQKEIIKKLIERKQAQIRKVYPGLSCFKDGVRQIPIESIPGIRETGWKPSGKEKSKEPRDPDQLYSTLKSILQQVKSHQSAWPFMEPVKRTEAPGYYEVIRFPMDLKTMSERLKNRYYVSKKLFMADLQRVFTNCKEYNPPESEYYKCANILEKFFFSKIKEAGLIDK

With `CN1C[C@H](Nc2cnn(C)c(=O)c2Br)C[C@H](c2ccc(C(=O)N3CCC(CN4CCN(c5ccc6c(c5)CN(C5CCC(=O)NC5=O)C6=O)CC4)CC3)cc2)C1` (stereo partly drawn) [Compound 22, 3-(5-(4-((1-(4-((3R,5R)-5-((5-bromo-1-methyl-6-oxo-1,6-dihydropyridazin-4-yl)amino)-1-methylpiperidin-3-yl)benzoyl)piperidin-4-yl)methyl)piperazin-1-yl)-1-oxoisoindolin-2-yl)piperidine-2,6-dione] the “histone acetylation (e.g., AcH3K9) levels” value [1] was “reduce histone acetylation (e.g., AcH3K9) levels”, the “reduction of KAT2B level” value [2] was “confirm such reduction” and the “tolerability (body weights relative to starting weight)” value [3] was “well tolerated”. For the same molecule, the DC50 ([4]; LASCPC-01, KAT2A) was 0.06 nM, the EC90 ([4]; LASCPC-01, KAT2A, read-out: DC90 (the source's name)) was 0.67 nM and the KAT2A levels ([4]; LASCPC-01 cells, FIG. 3) was “potently reduce KAT2A and KAT2B levels”.
